Laboratory results reported in patent publication US20260356856A1, “KRAS G12S AND G12C INHIBITORS” (MIRATI THERAPEUTICS, INC., priority 2023, published 2026).

Assays:
[1] = molecular target: T1, KRas-mediated phosphorylation of ERK in MKN1 cells (Homo sapiens, UniProt P01116); assay: Inhibition of KRas-mediated phosphorylation of ERK (HTRF), MKN1 cells; format: cell-based; conditions: MKN1 cells (KRas WT); HTRF pERK; 3 h incubation
T1 construct: pERK HTRF read-out
Method: Inhibition of KRas Phosphorylation of ERK (HTRF) by Exemplary Compounds of Formula (Ia) or (Ib)
Cisbio HTRF Advanced pERK Assay Catalog #64AERPEH • Cells: MKN1, PSN1 • Procedure: • 1. Day 1: Seed 6,000 cells/well −25 μl/well in 384-well white solid bottom plate; RPM1_10% FBS. Incubate overnight at 37 °C/5% CO2. • 2.

[2] = molecular target: T2, KRas-mediated phosphorylation of ERK in H358 cells (Homo sapiens, UniProt P01116, G12C); assay: Inhibition of KRas-mediated phosphorylation of ERK (HTRF), H358 cells; format: cell-based; conditions: HTRF pERK, 3 h incubation
T2 construct: pERK HTRF read-out

[3] = molecular target: T3, KRas-mediated phosphorylation of ERK in A549 cells (Homo sapiens, UniProt P01116, G12S); assay: Inhibition of KRas-mediated phosphorylation of ERK (HTRF), A549 cells; format: cell-based; conditions: HTRF pERK, 3 h incubation
T3 construct: pERK HTRF read-out

[4] = molecular target: T4, KRas G12S (Homo sapiens, UniProt P01116, G12S); assay: KRas binding assay, TR-FRET displacement of Cy5 labelled tracer; conditions: 60-minute incubation at room temperature, 1% DMSO, pH 7.5
T4 construct: Biotinylated KRas (corresponding to amino acids 1-169, produced at Accelegan Inc.); biotin (biotinylated); purchased Accelegan Inc
Outline: (§1)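 Compound competes with tracer for biotin-labelled KRas (amino acids 1-169) bound to terbium-streptavidin. Incubation runs 60 minutes at room temperature, final DMSO 1%. IC50 values derive from a 4-parameter fit.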

[5] = molecular target: T5, KRas WT (Homo sapiens, UniProt P01116); assay: as above; conditions: 60-minute incubation at room temperature, 1% DMSO, pH 7.5
T5 construct: Biotinylated KRas (corresponding to amino acids 1-169, produced at Accelegan Inc.); biotin (biotinylated); purchased Accelegan Inc
Outline: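 Assay buffer was HEPES (50 mM, pH 7.5) with MgCl2 (5 mM), DTT (1 mM) and Tween-20 (0.005%). Biotinylated KRas spanning residues 1-169 met tracer, terbium streptavidin and compound (1% DMSO, final) for 60 minutes at ambient temperature before reading. POC values were fitted for IC50.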

[6] = molecular target: T6, KRas G12C (Homo sapiens, UniProt P01116, G12C); assay: as above; conditions: 60-minute incubation at room temperature, 1% DMSO, pH 7.5
T6 construct: Biotinylated KRas (corresponding to amino acids 1-169, produced at Accelegan Inc.); biotin (biotinylated); purchased Accelegan Inc
Outline: as §1

T2 sequence (P01116 1-188 isoform P01116-2 G12C): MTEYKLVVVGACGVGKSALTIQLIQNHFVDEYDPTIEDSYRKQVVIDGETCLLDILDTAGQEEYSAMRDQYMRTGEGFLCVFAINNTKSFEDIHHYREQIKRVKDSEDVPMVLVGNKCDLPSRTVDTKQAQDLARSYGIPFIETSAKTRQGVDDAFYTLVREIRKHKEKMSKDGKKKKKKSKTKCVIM
T4 sequence (P01116 1-169 isoform P01116-2 G12S): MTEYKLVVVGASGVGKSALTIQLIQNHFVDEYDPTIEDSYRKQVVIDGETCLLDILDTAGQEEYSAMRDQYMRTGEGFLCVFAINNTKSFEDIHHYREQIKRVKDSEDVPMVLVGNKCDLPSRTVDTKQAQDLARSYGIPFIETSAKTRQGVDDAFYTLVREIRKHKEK
T5 sequence (P01116 1-169 isoform P01116-2): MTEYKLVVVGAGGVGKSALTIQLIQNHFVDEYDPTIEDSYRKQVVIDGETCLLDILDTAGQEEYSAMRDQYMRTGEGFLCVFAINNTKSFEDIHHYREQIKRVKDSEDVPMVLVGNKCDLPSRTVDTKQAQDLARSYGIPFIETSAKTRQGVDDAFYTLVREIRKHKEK
T3 sequence (P01116 1-188 isoform P01116-2 G12S): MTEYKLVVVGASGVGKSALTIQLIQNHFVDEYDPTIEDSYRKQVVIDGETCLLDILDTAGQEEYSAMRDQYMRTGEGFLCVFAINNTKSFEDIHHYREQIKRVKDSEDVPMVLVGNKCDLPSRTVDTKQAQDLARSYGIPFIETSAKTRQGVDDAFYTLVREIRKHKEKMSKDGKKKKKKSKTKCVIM
T6 sequence (P01116 1-169 isoform P01116-2 G12C): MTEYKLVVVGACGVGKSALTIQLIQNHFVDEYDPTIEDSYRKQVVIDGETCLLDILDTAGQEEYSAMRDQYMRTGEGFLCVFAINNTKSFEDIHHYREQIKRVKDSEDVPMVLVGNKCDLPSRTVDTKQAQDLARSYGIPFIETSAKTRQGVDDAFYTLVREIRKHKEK
T1 sequence (P01116 1-188 isoform P01116-2): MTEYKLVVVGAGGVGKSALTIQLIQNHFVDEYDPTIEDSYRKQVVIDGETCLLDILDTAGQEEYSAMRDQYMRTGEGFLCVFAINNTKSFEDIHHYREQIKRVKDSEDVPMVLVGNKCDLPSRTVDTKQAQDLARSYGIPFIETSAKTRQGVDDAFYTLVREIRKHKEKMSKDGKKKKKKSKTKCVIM

IC50 [1] | IC50 [2] | IC50 [3] | IC50 [4] | IC50 [5] | IC50 [6] | SMILES
2530 nM | 3830 nM | > 10000 nM | 477 nM | 412 nM | 676 nM | CCc1c(F)ccc2cc(O)cc(N3CCc4c(nc(OC[C@@]56CCCN5C[C@H](F)C6)nc4N4CCC(C(=O)n5ccc(C)n5)CC4)C3)c12 [Example 146, (1-(7-(8-ethyl-7-fluoro-3-hydroxynaphthalen-1-yl)-2-(((2R,7aS)-2-fluorotetrahydro-1H-pyrrolizin-7a(5H)-yl)methoxy)-5,6,7,8-tetrahydropyrido[3,4-d]pyrimidin-4-yl)piperidin-4-yl)(3-methyl-1H-pyrazol-1-yl)methanone]
2920 nM | 4220 nM | 100 nM | 57 nM | 669 nM | 360 nM | Cc1ccn(C(=O)C2CCCN(c3nc(OC[C@@]45CCCN4C[C@H](F)C5)nc4c(F)c(-c5c(C#N)c(N)cc(C)c5C(F)(F)F)c(Cl)cc34)CC2)n1 (stereo partly drawn) [Example 248, 6-amino-2-(6-chloro-8-fluoro-2-(((2R,7aS)-2-fluorotetrahydro-1H-pyrrolizin-7a(5H)-yl)methoxy)-4-(4-(3-methyl-1H-pyrazole-1-carbonyl)azepan-1-yl)quinazolin-7-yl)-4-methyl-3-(trifluoromethyl)benzonitrile]
26 nM | 31 nM | 82 nM | 9 nM | 8 nM | 7 nM | CC(C)C(=O)N(C)C(=O)C1CCN(c2nc(OC[C@@]34CCCN3C[C@H](F)C4)nc3c(F)c(-c4ccc(F)c5sc(N)c(C#N)c45)c(Cl)cc23)CC1 [Example 206, 1-(7-(2-amino-3-cyano-7-fluorobenzo[b]thiophen-4-yl)-6-chloro-8-fluoro-2-(((2R,7aS)-2-fluorotetrahydro-1H-pyrrolizin-7a(5H)-yl)methoxy)quinazolin-4-yl)-N-isobutyryl-N-methylpiperidine-4-carboxamide]
